In publication PMC10746543, “Design principles for cyclin K molecular glue degraders” (Nature Chemical Biology, 2023):
pEC50, pIC50: −log10 of the molar value. Several values for one entry are separate records, joined by “and”; a condition that tells them apart may be missing. Equal values may be shown once. Read-outs that look alike come from different tables or passages of the source.

Key:
CDK12–cyclin K = CDK12–cyclin K (Homo sapiens, UniProt Q9NYV4); experiment: Lanthascreen kinase binding assay, CDK12; details: for IC50: Supplementary Table 2, read-out: Lanthascreen IC50 [nM] CDK12; for Lanthascreen raw signal, sheet CDK12: duplicates
Chain of CDK12–cyclin K (Q9NYV4 713-1052): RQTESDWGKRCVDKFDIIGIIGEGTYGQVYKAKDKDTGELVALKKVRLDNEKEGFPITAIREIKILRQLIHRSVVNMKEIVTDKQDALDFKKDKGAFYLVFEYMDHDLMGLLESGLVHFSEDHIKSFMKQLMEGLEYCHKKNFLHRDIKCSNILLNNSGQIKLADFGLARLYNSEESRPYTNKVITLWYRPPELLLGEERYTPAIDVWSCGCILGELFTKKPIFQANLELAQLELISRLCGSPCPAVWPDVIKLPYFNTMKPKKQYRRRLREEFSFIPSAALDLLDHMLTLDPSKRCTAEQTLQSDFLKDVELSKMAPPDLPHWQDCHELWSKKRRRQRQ
Chain of CDK12–cyclin K (O75909 1-267 partner limits assumed): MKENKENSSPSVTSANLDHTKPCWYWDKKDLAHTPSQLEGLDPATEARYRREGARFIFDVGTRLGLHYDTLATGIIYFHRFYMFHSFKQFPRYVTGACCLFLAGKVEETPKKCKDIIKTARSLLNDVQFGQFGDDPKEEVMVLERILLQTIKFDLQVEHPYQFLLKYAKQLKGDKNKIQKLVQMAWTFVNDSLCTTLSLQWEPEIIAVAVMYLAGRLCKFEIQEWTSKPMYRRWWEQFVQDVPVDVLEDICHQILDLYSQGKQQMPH
Method: Lanthascreen experiments were performed using commercially available reagents (Thermo Fisher) and according to the manufacturer’s instructions.

HEK293T cells = experiment: Drug sensitivity assay (CellTiter-Glo viability) with or without MLN4924 pretreatment; assay type: cell-based, human; details: Supplementary Table 2; for pEC50: Homo sapiens, HEK-293T, HEK293T viability, 72 h, compound alone, read-out: Cellular assays EC50; for Toxicity rescue: MLN4924-mediated cytotoxicity rescue, 10 µM used where n.d.
Outline: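 HEK293T–Cas9, 0.15 × 10^6 ml^−1; pretreat DMSO vs 100 nM MLN4924; drugs dispensed after 2 h; 3 d exposure; CellTiter-Glo; viability vs DMSO control.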

[1] = compound 0.038147 nM, series r13
[2] = compound 0.152588 nM, series r13
[3] = compound 0.610352 nM, series r13
[4] = compound 9.76563 nM, series r13
[5] = compound 39.0625 nM, series r13

IC50 (CDK12–cyclin K)	Lanthascreen raw signal, sheet CDK12 (CDK12–cyclin K; compound 1.02544 nM, series r1)	Lanthascreen raw signal, sheet CDK12 (CDK12–cyclin K; compound 3.15521 nM, series r1)	Lanthascreen raw signal, sheet CDK12 (CDK12–cyclin K; compound 9.46563 nM, series r1)	Lanthascreen raw signal, sheet CDK12 (CDK12–cyclin K; compound 31.5521 nM, series r1)	Lanthascreen raw signal, sheet CDK12 (CDK12–cyclin K; compound 99.3891 nM, series r1)	Lanthascreen raw signal, sheet CDK12 (CDK12–cyclin K; compound 315.521 nM, series r1)	Lanthascreen raw signal, sheet CDK12 (CDK12–cyclin K; compound 3155.21 nM, series r1)	Lanthascreen raw signal, sheet CDK12 (CDK12–cyclin K; compound 10002 nM, series r1)	Lanthascreen raw signal, sheet CDK12 (CDK12–cyclin K; [1])	Lanthascreen raw signal, sheet CDK12 (CDK12–cyclin K; [2])	Lanthascreen raw signal, sheet CDK12 (CDK12–cyclin K; [3])	Lanthascreen raw signal, sheet CDK12 (CDK12–cyclin K; [4])	Lanthascreen raw signal, sheet CDK12 (CDK12–cyclin K; [5])	Lanthascreen raw signal, sheet CDK12 (CDK12–cyclin K; compound 156.25 nM, series r13)	Lanthascreen raw signal, sheet CDK12 (CDK12–cyclin K; compound 625 nM, series r13)	Lanthascreen raw signal, sheet CDK12 (CDK12–cyclin K; compound 2500 nM, series r13)	Lanthascreen raw signal, sheet CDK12 (CDK12–cyclin K; compound 10000 nM, series r13)	SMILES	pEC50 (HEK293T cells)	Toxicity rescue (HEK293T cells)	also measured
25 nM	0.01046 and 0.009798	0.009054 and 0.008698	0.00642 and 0.008208	0.007402 and 0.006928	0.007817 and 0.006924	0.006025 and 0.005353	0.005515 and 0.005262	0.006527 and 0.0053	–	–	–	–	–	–	–	–	–	Cc1cc2nc(CNc3nc(N4CCN(C)CC4)nc4c(Br)cnn34)[nH]c2cc1C [DS73, reference compound]	8.70	850%	–
> 10000 nM	0.009008 and 0.01048	0.01033 and 0.00928	0.007656 and 0.01097	0.008129 and 0.008647	0.008644 and 0.009455	0.008456 and 0.007711	0.008398 and 0.008586	0.01123 and 0.01167	0.0112 and 0.01094	0.01131 and 0.01094	0.0113 and 0.01155	0.01084 and 0.01176	0.01123 and 0.01099	0.01158 and 0.0119	0.01045 and 0.01083	0.01145 and 0.01174	0.01298 and 0.0125	O=C(CSc1nnc2c(n1)[nH]c1ccccc12)Nc1ccc(Cl)cn1 [dCeMM2]	5.85	398%	pIC50 (CDK12–cyclin K; Lanthascreen, average, Extended Data Fig. 8, read-out: CDK12 IC50): < 5.00
2670 nM	0.009603 and 0.009325	0.009514 and 0.008733	0.008364 and 0.009802	0.009806 and 0.008597	0.01036 and 0.01052	0.008735 and 0.009176	0.007612 and 0.007481	0.006896 and 0.007143	0.01104 and 0.01163	0.01112 and 0.01168	0.01247 and 0.01238	0.01196 and 0.01162	0.01144 and 0.01131	0.01124 and 0.01129	0.01063 and 0.01139	0.009917 and 0.009154	0.007835 and 0.008247	O=C(CSc1nc2ccccc2[nH]1)Nc1ccc(Cl)cn1 [dCeMM3]	< 5.00	0%	–
6550 nM	0.009042 and 0.01099	0.01068 and 0.009679	0.009286 and 0.009664	0.009025 and 0.009021	0.008619 and 0.008828	0.009446 and 0.008194	0.008559 and 0.007567	0.008529 and 0.007315	0.01232 and 0.01243	0.01076 and 0.01116	0.0114 and 0.01052	0.01092 and 0.01022	0.01118 and 0.01016	0.01038 and 0.009956	0.01123 and 0.01103	0.01034 and 0.009721	0.008264	Cc1ccc(C(=O)N2CSCC2C(=O)Nc2ncc(C)s2)o1 (stereo not drawn) [dCeMM4]	5.58	281%	Lanthascreen raw signal, sheet CDK12 (CDK12–cyclin K; compound 0.038147 nM, series r49): 0.008613 and 0.007971; Lanthascreen raw signal, sheet CDK12 (CDK12–cyclin K; compound 0.152588 nM, series r49): 0.01012 and 0.009882; Lanthascreen raw signal, sheet CDK12 (CDK12–cyclin K; compound 0.610352 nM, series r49): 0.009497 and 0.01011; Lanthascreen raw signal, sheet CDK12 (CDK12–cyclin K; compound 9.76563 nM, series r49): 0.01048 and 0.01041; Lanthascreen raw signal, sheet CDK12 (CDK12–cyclin K; compound 39.0625 nM, series r49): 0.009518 and 0.009698; Lanthascreen raw signal, sheet CDK12 (CDK12–cyclin K; compound 156.25 nM, series r49): 0.009802 and 0.01107; Lanthascreen raw signal, sheet CDK12 (CDK12–cyclin K; compound 625 nM, series r49): 0.008992 and 0.00907; Lanthascreen raw signal, sheet CDK12 (CDK12–cyclin K; compound 2500 nM, series r49): 0.009117 and 0.008384; Lanthascreen raw signal, sheet CDK12 (CDK12–cyclin K; compound 10000 nM, series r49): 0.007507 and 0.007835
